In patent publication US8034940B2, “Modulators of glucocorticoid receptor, AP-1, and/or NF-κB activity and use thereof” (Bristol-Myers Squibb Company, priority 2006, dated 2011):

Tested on: AP-1 induced transcriptional activity
Assay: Cellular Transrepressional Assay (AP-1 luciferase reporter, PMA-activated A549 cells)
Type: cell-based
Conditions: for Emax: A549, 7 h, read-out: AP-1 Max % inh (Cellular Transrepression Assay); for Emax / AP-1 Max % inh (Cellular Transrepression Assay): maximum inhibition
Procedure: Cellular Transrepressional Assay
To measure the ability of test molecules to inhibit AP-1 induced transcriptional activity we utilized an A549 cell which was stably transfected with a plasmid containing 7× AP-1 DNA binding sites (pAP-1-Luc plasmid, Stratagene Co. La Jolla, Calif.) followed by the gene for luciferase. Cells were activated with 10 ng/ml of […] (PMA) plus or minus test molecules for 7 hours. After 7 hours a luciferase reagent was added to measure luciferase enzymatic activity in the cell. After a 10 minute incubation of luciferase reagent with cells, luminescence was measured in a TopCount luminescence counter. Repression of AP-1 activity was calculated as the percentage decrease in the signal induced by PMA alone. Test molecules were analyzed in the concentration range from 0.1 nM to 40 μM. EC50s were determined by using standard curve fitting methods such as Excel fit (Microsoft Co.).

[1] = Homo sapiens, Cellular Transrepression Assay
[2] = Homo sapiens, A549, Cellular Transrepression Assay

| SMILES | EC50 [2] [nM] | EC50 (Cellular Transrepression Assay) [nM] | EC50 (Cellular Transrepression Assay, listed as 166^a) [nM] | Emax [1] [%] | AP-1 Max % inh (Cellular Transrepression Assay) (Cellular Transrepression Assay) [%] |
| --- | --- | --- | --- | --- | --- |
| CC(C)(C(=O)Nc1nc(-c2cccc3ccccc23)cs1)C1c2ccccc2Oc2nc(Cl)ccc21 (centres unmarked) [Example 74] | 319 | – | – | 71.2 | – |
| COc1ccc(Cc2csc(NC(=O)C(C)(C)C3c4ccccc4Oc4nc(OC)ccc43)n2)cc1 (centres unmarked) [Example 77] | 91.6 | – | – | 73.9 | – |
| COc1ccc2c(n1)Oc1ccccc1C2C(C)(C)C(=O)Nc1nc(-c2ccc(F)c3ccccc23)cs1 (centres unmarked) [Example 78] | 164 | – | – | 65.1 | – |
| COc1ccc2c(n1)Oc1ccccc1C2C(C)(C)C(=O)Nc1nc(Cc2ccc(-c3ccncc3)cc2)cs1 (centres unmarked) [Example 79] | 9.42 | – | – | 62.3 | – |
| COc1cccc2c1Oc1ccccc1C2C(C)(C)C(=O)Nc1nc(-c2ccc(F)c3ccccc23)cs1 (centres unmarked) [Example 82] | 126 | – | – | 72.6 | – |
| COc1cccc2c1Oc1ccccc1C2C(C)(C)C(=O)Nc1nc(Cc2ccc(-c3ccncc3)cc2)cs1 (centres unmarked) [Example 83] | 15 | – | – | 69.6 | – |
| COc1ccc(Cc2csc(NC(=O)C(C)(C)C3c4ccccc4Oc4c(OCCN(C)C)cccc43)n2)cc1 (centres unmarked) [Example 85] | – | – | – | 88.4 | – |
| Cc1cnc(NC(=O)C(C)(C)[C@H]2c3ccccc3Oc3cc(O)ccc32)s1 [Example 87] | 91.1 | – | – | 46 | – |
| Cc1csc(NC(=O)C(C)(C)[C@H]2c3ccccc3Oc3cc(O)ccc32)n1 [Example 88] | 128 | – | – | 49.2 | – |
| CC(C)(C(=O)Nc1nccs1)[C@H]1c2ccccc2Oc2cc(O)ccc21 [Example 89] | 18.1 | – | – | 68.3 | – |
| CC(C)(C(=O)Nc1nncs1)[C@H]1c2ccccc2Oc2cc(O)ccc21 [Example 90] | 6.43 | – | – | 59.5 | – |
| CC(C)(C(=O)Nc1nncs1)[C@@H]1c2ccccc2Oc2cc(O)ccc21 [Example 95] | 574 | – | – | 52.2 | – |
| Cc1nnc(NC(=O)C(C)(C)C2c3ccccc3Oc3cc(O)ccc32)s1 (centres unmarked) [Example 100] | 256 | – | – | 71.7 | – |
| CN(C)C(=O)c1ccc(-c2ccc3c(c2)Oc2ccccc2C3C(C)(C)C(=O)Nc2nncs2)nc1 (centres unmarked) [Example 102] | 58 | – | – | 45 | – |
| CC(C)Oc1ccc(-c2ccc3c(c2)Oc2ccccc2C3C(C)(C)C(=O)Nc2nncs2)nc1 (centres unmarked) [Example 105] | 12.2 | – | – | 30.5 | – |
| CCc1cnc(-c2ccc3c(c2)Oc2ccccc2C3C(C)(C)C(=O)Nc2nncs2)nc1 (centres unmarked) [Example 106] | 24.1 | – | – | 48.4 | – |
| CC(C)Oc1cnc(-c2ccc3c(c2)Oc2ccccc2[C@@H]3C(C)(C)C(=O)Nc2nncs2)nc1 [Example 107] | 833 | – | – | 22.8 | – |
| CN(C)C(=O)c1cnc(-c2ccc3c(c2)Oc2ccccc2C3C(C)(C)C(=O)Nc2nncs2)nc1 (centres unmarked) [Example 109] | 182 | – | – | 60.2 | – |
| CCc1cnc(-c2ccc3c(c2)Oc2ccccc2[C@H]3C(C)(C)C(=O)Nc2nncs2)nc1 [Example 110] | 183 | – | – | 35.7 | – |
| CCc1cnc(-c2ccc3c(c2)Oc2ccccc2[C@@H]3C(C)(C)C(=O)Nc2nncs2)nc1 [Example 111] | 14.6 | – | – | 40.7 | – |

| SMILES | EC50 [2] [nM] | EC50 (Cellular Transrepression Assay) [nM] | EC50 (Cellular Transrepression Assay, listed as 166^a) [nM] | Emax [1] [%] | AP-1 Max % inh (Cellular Transrepression Assay) (Cellular Transrepression Assay) [%] |
| --- | --- | --- | --- | --- | --- |
| CC(C)(C(=O)Nc1nncs1)C1c2ccccc2Oc2cc(/C(N)=N\O)ccc21 (centres unmarked) [Example 115] | 3.9 | – | – | 31.3 | – |
| CC(C)(C(=O)Nc1nncs1)C1c2ccccc2Oc2cc(NC(=O)OCc3ccccc3)ccc21 (centres unmarked) [Example 119] | 83 | – | – | 45.3 | – |
| Cc1ccc(COC(=O)Nc2ccc3c(c2)Oc2ccccc2C3C(C)(C)C(=O)Nc2nncs2)cc1 (centres unmarked) [Example 121] | 59.5 | – | – | 44.8 | – |
| CC(C)(C(=O)Nc1nncs1)C1c2ccccc2Oc2cc(NC(=O)NC3CCCC3)ccc21 (centres unmarked) [Example 125] | 94.3 | – | – | 33.2 | – |
| CC(C)(C(=O)Nc1nncs1)C1c2ccccc2Oc2cc(-c3nn[nH]n3)ccc21 (centres unmarked) [Example 126] | 49.7 | – | – | 30.8 | – |
| COc1ccc(CNc2ccc3c(n2)Oc2ccccc2C3C(C)(C)C(=O)Nc2nncs2)cc1 (centres unmarked) [Example 128] | 92 | – | – | 66.3 | – |
| CC(C)(C(=O)Nc1nncs1)C1c2ccccc2Oc2nc(N3CCOCC3)ccc21 (centres unmarked) [Example 129] | 307 | – | – | 39.5 | – |
| CC(C)(C(=O)Nc1nncs1)C1c2ccccc2Oc2nc(N3CCCC3)ccc21 (centres unmarked) [Example 130] | 111 | – | – | 31.5 | – |
| CN1CCN(c2ccc3c(n2)Oc2ccccc2C3C(C)(C)C(=O)Nc2nncs2)CC1 (centres unmarked) [Example 131] | 970 | – | – | 45.6 | – |
| CC(C)(C(=O)Nc1nncs1)C1c2ccccc2Oc2nc(N3CCCCC3)ccc21 (centres unmarked) [Example 132] | 96 | – | – | 50.1 | – |
| CC(C)(C(=O)Nc1nncs1)C1c2ccccc2Oc2nc(NCc3ccccc3)ccc21 (centres unmarked) [Example 133] | 585 | – | – | 61.3 | – |
| CC(C)(C(=O)Nc1nncs1)[C@H]1c2ccccc2Oc2nc(N3CCC4(CC3)OCCO4)ccc21 [Example 139] | 95.5 | – | – | 26.8 | – |
| CC(C)(C(=O)Nc1nncs1)[C@H]1c2ccccc2Oc2nc(N3CCCC3)ccc21 [Example 141] | 92.1 | – | – | 44.2 | – |
| CC(C)(C(=O)Nc1nccs1)C1c2ccccc2Oc2nc(N3CCOCC3)ccc21 (centres unmarked) [Example 154] | 236 | – | – | 46.2 | – |
| CC(C)(C(=O)Nc1nccs1)C1c2ccccc2Oc2nc(N)ccc21 (centres unmarked) [Example 158] | 200 | – | – | 62.5 | – |
| Cc1nnc(NC(=O)C(C)(C)C2c3ccc(-c4ccc(C(=O)N5CCOCC5)cc4)nc3Oc3c(F)cccc32)s1 (centres unmarked) [Example 163] | 4.9 | – | – | 64.4 | – |
| Cc1nsc(NC(=O)C(C)(C)C2c3ccc(-c4ccc(C(=O)N5CCOCC5)cc4)nc3Oc3c(F)cccc32)n1 (centres unmarked) [Example 164] | 8.5 | – | – | 58 | – |
| Cc1nnc(NC(=O)C(C)(C)C2c3ccc(-c4ccc(C(=O)N(C)C)c(F)c4)nc3Oc3c(F)cccc32)s1 (centres unmarked) [Example 165] | 9.8 | – | – | 53.4 | – |
| Cc1nnc(NC(=O)C(C)(C)C2c3ccc(-c4ccc(C(=O)N(C)C)cc4)nc3Oc3c(F)cccc32)s1 (centres unmarked) [Example 166] | – | 43.4 | 14.5 | 56.1 | – |

Further lines, with some results ahead:

| EC50 [2] [nM] | EC50 (Cellular Transrepression Assay) [nM] | EC50 (Cellular Transrepression Assay, listed as 166^a) [nM] | SMILES | Emax [1] [%] | AP-1 Max % inh (Cellular Transrepression Assay) (Cellular Transrepression Assay) [%] |
| --- | --- | --- | --- | --- | --- |
| 93.7 | – | – | COc1ccc(CNc2ccc3c(n2)Oc2ccccc2[C@@H]3C(C)(C)C(=O)Nc2nncs2)cc1 [Example 140] | 64.1 | – |
| 479 | – | – | CC(C)(C(=O)Nc1nncs1)C1c2ccccc2Oc2nc(N)ccc21 (centres unmarked) [Example 159] | 30.3 | – |
| – | 92.7 | – | COc1ccc(-c2ccc3c(n2)Oc2ccccc2C3C(C)(C)C(=O)Nc2nncs2)cc1 (centres unmarked) [Example 169] | – | 48.82 |
| – | 182 | – | Cc1ccc(-c2ccc3c(n2)Oc2ccccc2C3C(C)(C)C(=O)Nc2nncs2)cc1 (centres unmarked) [Example 170] | – | 44.12 |
| – | 13.2 | – | CN(C)C(=O)c1ccc(-c2ccc3c(n2)Oc2ccccc2C3C(C)(C)C(=O)Nc2nncs2)cc1 (centres unmarked) [Example 172] | – | 59.04 |
| – | 82.5 | – | CC(C)(C(=O)Nc1nncs1)C1c2ccccc2Oc2nc(-c3ccc(OC(F)(F)F)cc3)ccc21 (centres unmarked) [Example 173] | – | 44.82 |
| – | 118 | – | CN(C)c1ccc(-c2ccc3c(n2)Oc2ccccc2C3C(C)(C)C(=O)Nc2nncs2)cc1 (centres unmarked) [Example 176] | – | 43.54 |
| – | 109 | – | CC(C)(C(=O)Nc1nncs1)C1c2ccccc2Oc2nc(-c3ccc(C(F)(F)F)cc3)ccc21 (centres unmarked) [Example 182] | – | 33.12 |
| – | 22.6 | – | CC(C)(C(=O)Nc1nncs1)C1c2ccccc2Oc2nc(-c3ccc(O)cc3)ccc21 (centres unmarked) [Example 191] | – | 37.51 |
| – | 22.2 | – | CC(C)(C(=O)Nc1nncs1)C1c2ccccc2Oc2nc(-c3ccc(Oc4ccccc4)cc3)ccc21 (centres unmarked) [Example 198] | – | 34.38 |
| – | 27.6 | – | CSc1ccc(-c2ccc3c(n2)Oc2ccccc2C3C(C)(C)C(=O)Nc2nncs2)cc1 (centres unmarked) [Example 199] | – | 48.94 |
| – | 134 | – | CC(C)(C(=O)Nc1nncs1)C1c2ccccc2Oc2nc(-c3ccc(N)cc3)ccc21 (centres unmarked) [Example 200] | – | 53.76 |
| – | 36.3 | – | CC(=O)c1ccc(-c2ccc3c(n2)Oc2ccccc2C3C(C)(C)C(=O)Nc2nncs2)cc1 (centres unmarked) [Example 201] | – | 65.46 |
| – | 219 | – | CC(C)(C(=O)Nc1nncs1)C1c2ccccc2Oc2nc(-c3ccc(OCc4ccccc4)cc3)ccc21 (centres unmarked) [Example 202] | – | 38.37 |
| – | 42.8 | – | CCOc1ccc(-c2ccc3c(n2)Oc2ccccc2C3C(C)(C)C(=O)Nc2nncs2)cc1 (centres unmarked) [Example 204] | – | 44.75 |
| – | 8.5 | – | CCCc1ccc(-c2ccc3c(n2)Oc2ccccc2C3C(C)(C)C(=O)Nc2nncs2)cc1 (centres unmarked) [Example 205] | – | 57.72 |
| – | 21.3 | – | CCc1ccc(-c2ccc3c(n2)Oc2ccccc2C3C(C)(C)C(=O)Nc2nncs2)cc1 (centres unmarked) [Example 206] | – | 54.73 |
| – | 32.6 | – | CC(C)(C)c1ccc(-c2ccc3c(n2)Oc2ccccc2C3C(C)(C)C(=O)Nc2nncs2)cc1 (centres unmarked) [Example 207] | – | 37.96 |
| – | 12.2 | – | CC(C)Cc1ccc(-c2ccc3c(n2)Oc2ccccc2C3C(C)(C)C(=O)Nc2nncs2)cc1 (centres unmarked) [Example 208] | – | 54.08 |
